From US11752120B2, “Use of succinic acid in increasing sensitivity of bacteria to antibiotics” (SUN YAT-SEN UNIVERSITY, priority 2018, dated 2023)
Where a name gives a salt, the structure may show the parent alone.

Assays:
[1] = tested on: clinical Escherichia coli YT1-30; test: Minimum inhibitory concentration (MIC), NCCLS method, 30 clinical strains; assay type: cell-based; set-up: Minimum inhibitory concentration (MIC): unit not given here
Text: (§1) Escherichia coli (E. coli) are one of the most common bacteria in the clinic. 30 strains of E. coli obtained from the clinic were named YT1-30. The minimum inhibitory concentrations (MIC) of 8 antibiotics against these 30 clinically obtained E. coli was detected according to the NCCLS method, and E. coli K12 was used as a control.

[2] = tested on: E. coli K12; test: Minimum inhibitory concentration (MIC), NCCLS method, control strain; assay type: cell-based, Escherichia coli; conditions: no unit in table, MIC in μg/mL
Text: as §1

Row | Structure (SMILES) | Minimum inhibitory concentration (MIC) ([1]; strain YT1) | Minimum inhibitory concentration (MIC) ([1]; strain YT2) | Minimum inhibitory concentration (MIC) ([1]; strain YT3) | Minimum inhibitory concentration (MIC) ([1]; strain YT4) | Minimum inhibitory concentration (MIC) ([1]; strain YT5) | Minimum inhibitory concentration (MIC) ([1]; strain YT6) | Minimum inhibitory concentration (MIC) ([1]; strain YT7) | Minimum inhibitory concentration (MIC) ([1]; strain YT8) | Minimum inhibitory concentration (MIC) ([1]; strain YT9) | Minimum inhibitory concentration (MIC) ([1]; strain YT10) | Minimum inhibitory concentration (MIC) ([1]; strain YT11) | Minimum inhibitory concentration (MIC) ([1]; strain YT12) | Minimum inhibitory concentration (MIC) ([1]; strain YT13) | Minimum inhibitory concentration (MIC) ([1]; strain YT14) | Minimum inhibitory concentration (MIC) ([1]; strain YT15) | Minimum inhibitory concentration (MIC) ([1]; strain YT16) | Minimum inhibitory concentration (MIC) ([1]; strain YT17) | Minimum inhibitory concentration (MIC) ([1]; strain YT18) | Minimum inhibitory concentration (MIC) ([1]; strain YT19) | Minimum inhibitory concentration (MIC) ([1]; strain YT20) | further results
1 | CC[C@H]1OC(=O)[C@H](C)[C@@H](O[C@H]2C[C@@](C)(OC)[C@@H](O)[C@H](C)O2)[C@H](C)[C@@H](O[C@@H]2O[C@H](C)C[C@H](N(C)C)[C@H]2O)[C@](C)(O)C[C@@H](C)/C(=N\OCOCCOC)[C@H](C)[C@@H](O)[C@]1(C)O [Roxithromycin] | 39.0625 | 625 | 625 | 156.25 | 625 | 625 | 625 | 625 | 625 | 625 | 625 | 625 | 625 | 2500 | 2500 | 625 | 625 | 625 | 625 | 625 | Minimum inhibitory concentration (MIC) ([1]; strain YT21): 625; Minimum inhibitory concentration (MIC) ([1]; strain YT22): 625; Minimum inhibitory concentration (MIC) ([1]; strain YT23): 625; Minimum inhibitory concentration (MIC) ([1]; strain YT24): 625; Minimum inhibitory concentration (MIC) ([1]; strain YT25): 625; Minimum inhibitory concentration (MIC) ([1]; strain YT26): 625; Minimum inhibitory concentration (MIC) ([1]; strain YT27): 625; Minimum inhibitory concentration (MIC) ([1]; strain YT28): 2500; Minimum inhibitory concentration (MIC) ([1]; strain YT29): 625; Minimum inhibitory concentration (MIC) ([1]; strain YT30): 156.25; Minimum inhibitory concentration (MIC) [2]: 9.765
2 | CC(C)(O/N=C(\C(=O)N[C@@H]1C(=O)N2C(C(=O)[O-])=C(C[n+]3ccccc3)CS[C@H]12)c1csc(N)n1)C(=O)O [Ceftazidime] | 0.122 | 0.488 | 0.488 | 0.488 | 7.81 | 1.953 | 0.488 | 0.488 | 0.488 | 7.812 | 7.812 | 0.488 | 0.488 | 0.488 | 0.488 | 0.488 | 0.488 | 0.488 | 0.488 | 0.122 | MIC compared with the control E. coli K12 ([1]; strain YT1): the same as the control; Minimum inhibitory concentration (MIC) ([1]; strain YT21): 0.488; Minimum inhibitory concentration (MIC) ([1]; strain YT22): 0.488; Minimum inhibitory concentration (MIC) ([1]; strain YT23): 0.488; Minimum inhibitory concentration (MIC) ([1]; strain YT24): 7.812; Minimum inhibitory concentration (MIC) ([1]; strain YT25): 31.25; Minimum inhibitory concentration (MIC) ([1]; strain YT26): 31.25; Minimum inhibitory concentration (MIC) ([1]; strain YT27): 0.488; Minimum inhibitory concentration (MIC) ([1]; strain YT28): 31.25; Minimum inhibitory concentration (MIC) ([1]; strain YT29): 7.812; Minimum inhibitory concentration (MIC) ([1]; strain YT30): 7.812; Minimum inhibitory concentration (MIC) [2]: 0.122
3 | NCC[C@H](O)C(=O)N[C@@H]1C[C@H](N)[C@@H](O[C@H]2O[C@H](CN)[C@@H](O)[C@H](O)[C@H]2O)[C@H](O)[C@H]1O[C@H]1O[C@H](CO)[C@@H](O)[C@H](N)[C@H]1O [Amikacin] | 9.765 | 9.765 | 9.765 | 9.765 | 9.765 | 9.765 | 9.765 | 9.765 | 2.441 | 39.0625 | 2500 | 2500 | 2500 | 2500 | 2500 | 2500 | 2500 | 2.441 | 9.76 | 2.441 | Minimum inhibitory concentration (MIC) ([1]; strain YT21): 2500; Minimum inhibitory concentration (MIC) ([1]; strain YT22): 625; Minimum inhibitory concentration (MIC) ([1]; strain YT23): 9.765; Minimum inhibitory concentration (MIC) ([1]; strain YT24): 9.765; Minimum inhibitory concentration (MIC) ([1]; strain YT25): 2500; Minimum inhibitory concentration (MIC) ([1]; strain YT26): 2500; Minimum inhibitory concentration (MIC) ([1]; strain YT27): 9.765; Minimum inhibitory concentration (MIC) ([1]; strain YT28): 2500; Minimum inhibitory concentration (MIC) ([1]; strain YT29): 9.765; Minimum inhibitory concentration (MIC) ([1]; strain YT30): 2.441; Minimum inhibitory concentration (MIC) [2]: 0.61
4 | CCC[C@@H]1C[C@@H](C(=O)N[C@@H]([C@H]2O[C@H](SC)[C@H](O)[C@@H](O)[C@H]2O)[C@H](C)Cl)N(C)C1 [Clindamycin hydrochloride] | 390.625 | 390.625 | 390.625 | 1562.5 | 6250 | 1562.5 | 6250 | 6250 | 1562.5 | 6250 | 25000 | 25000 | 25000 | 25000 | 25000 | 25000 | 25000 | 390.625 | 390.625 | 390.625 | Minimum inhibitory concentration (MIC) ([1]; strain YT21): 390.625; Minimum inhibitory concentration (MIC) ([1]; strain YT22): 390.625; Minimum inhibitory concentration (MIC) ([1]; strain YT23): 390.625; Minimum inhibitory concentration (MIC) ([1]; strain YT24): 390.625; Minimum inhibitory concentration (MIC) ([1]; strain YT25): 390.625; Minimum inhibitory concentration (MIC) ([1]; strain YT26): 390.625; Minimum inhibitory concentration (MIC) ([1]; strain YT27): 390.625; Minimum inhibitory concentration (MIC) ([1]; strain YT28): 1562.5; Minimum inhibitory concentration (MIC) ([1]; strain YT29): 390.625; Minimum inhibitory concentration (MIC) ([1]; strain YT30): 390.625; Minimum inhibitory concentration (MIC) [2]: 24.414
